Results reported in ChEMBL document CHEMBL4251627, “Structural and biological characterization of new hybrid drugs joining an HDAC inhibitor to different NO-donors” (Eur J Med Chem, 2018).
Activity calls are given as the source filed them. No cut-off for these calls is given here.

Assays:
[1] = molecular target: Histone deacetylase (Homo sapiens) (UniProt Q13547+O15379+Q9UBN7+Q92769+Q9UQL6+Q8WUI4+Q9BY41+Q96DB2+P56524+Q9UKV0+Q969S8); experiment: Inhibition of HDAC in human HaCaT cells at 10 uM using acetylated lysine side chain as substrate incubated for 1 hr by colorimetric detection based assay relative to control; type: cell-based
[2] = test system: Rattus norvegicus; experiment: (§1) Activation of soluble guanylyl cyclase in Wistar rat aortic strips assessed as dilation of L-phenylephrine-induced contraction administered 5 mins before contraction by isometric transducer analysis
[3] = as §1
[4] = Activation of soluble guanylyl cyclase in Wistar rat aortic strips assessed as dilation of L-phenylephrine-induced contraction administered 5 mins before contraction in presence of ODQ by isometric transducer analysis
[5] = molecular target: T1, Histone deacetylase 2 (Homo sapiens, UniProt Q92769); experiment: Induction of HDAC2 S-nitrosylation in human HaCaT cells after 1 hr by immunoprecipitation and Western blot analysis; type: cell-based
[6] = Drug metabolism in human HaCaT cells assessed as induction of NO release at 50 to 100 uM after 1 hr by DAF-2D-based FACS analysis; type: ADME, cell-based
[7] = Drug metabolism in human HaCaT cells assessed as induction of NO release at 10 uM after 1 hr by DAF-2D-based FACS analysis; type: ADME, cell-based
[8] = test system: C2C12; experiment: Induction of skeletal muscle differentiation in mouse C2C12 cells assessed as induction of multinucleated fibers at 0.5 uM after 5 days by DAPI-staining based microscopy; type: functional, cell-based
[9] = test system: C2C12; experiment: Cytotoxicity against mouse C2C12 cells assessed as increase in dead cells 0.5 to 10 uM after 72 hrs by Trypan Blue-based assay; type: cell-based; conditions: c2c12, 72 h
[10] = molecular target: T1, Histone deacetylase 2; experiment: Inhibition of FLAG-tagged HDAC2 (unknown origin) expressed in HEK293T cells using acetylated lysine side chain as substrate after 1 hr by colorimetric detection based assay; type: cell-based
[11] = molecular target: Histone deacetylase 4 (Homo sapiens) (UniProt P56524); experiment: Induction of HDAC4 nuclear translocation in human HaCaT cells at 10 uM after 1 hr by immunofluorescence analysis; type: cell-based
[12] = test system: C2C12; experiment: Induction of skeletal muscle differentiation in mouse C2C12 cells assessed as myotube formation by measuring MHC expression at 0.5 uM after 5 days by DAPI-staining based microscopy; type: functional, cell-based
[13] = molecular target: Histone deacetylase 1 (Homo sapiens, UniProt Q13547); experiment: Inhibition of human FLAG-tagged HDAC1 expressed in HEK293T cells using acetylated lysine side chain as substrate after 1 hr by colorimetric detection based assay
[14] = molecular target: Histone deacetylase 5 (Homo sapiens) (UniProt Q9UQL6); experiment: Induction of HDAC5 nuclear translocation in human HaCaT cells at 10 uM after 1 hr by immunofluorescence analysis; type: cell-based
[15] = molecular target: Histone deacetylase 3 (Homo sapiens, UniProt O15379); experiment: Inhibition of human FLAG-tagged HDAC3 expressed in HEK293T cells using acetylated lysine side chain as substrate after 1 hr by colorimetric detection based assay; type: cell-based
[16] = test system: HaCaT; experiment: Cytotoxicity against human HaCaT cells assessed as increase in dead cells 0.1 to 100 uM after 72 hrs by Trypan Blue-based assay; type: cell-based
[17] = test system: C2C12; experiment: Induction of skeletal muscle differentiation in mouse C2C12 cells assessed as increase in myoblast fusion by measuring MyoM expression at 0.5 uM after 5 days by qRT-PCR analysis; type: functional, cell-based
[18] = Drug metabolism in human HaCaT cells assessed as induction of NO release at 10 uM by DAF-2D-based FACS analysis; type: ADME, cell-based; conditions: TDE = time-dependent effect

T1 sequence (Q92769 whole entry): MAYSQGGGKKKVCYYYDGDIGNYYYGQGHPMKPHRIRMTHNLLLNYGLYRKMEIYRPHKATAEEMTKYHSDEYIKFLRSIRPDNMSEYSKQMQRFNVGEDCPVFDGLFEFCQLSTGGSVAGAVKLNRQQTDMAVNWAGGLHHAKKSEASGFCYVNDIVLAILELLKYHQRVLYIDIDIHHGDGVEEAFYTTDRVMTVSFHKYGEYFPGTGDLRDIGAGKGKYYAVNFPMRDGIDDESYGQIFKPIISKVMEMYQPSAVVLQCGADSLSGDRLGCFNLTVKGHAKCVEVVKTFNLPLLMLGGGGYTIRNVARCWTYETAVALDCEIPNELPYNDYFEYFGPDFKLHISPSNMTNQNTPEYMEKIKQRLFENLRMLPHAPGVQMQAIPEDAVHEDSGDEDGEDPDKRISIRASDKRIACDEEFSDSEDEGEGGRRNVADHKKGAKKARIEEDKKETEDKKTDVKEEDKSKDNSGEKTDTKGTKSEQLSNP
Histone deacetylase 1, sequence (Q13547 whole entry): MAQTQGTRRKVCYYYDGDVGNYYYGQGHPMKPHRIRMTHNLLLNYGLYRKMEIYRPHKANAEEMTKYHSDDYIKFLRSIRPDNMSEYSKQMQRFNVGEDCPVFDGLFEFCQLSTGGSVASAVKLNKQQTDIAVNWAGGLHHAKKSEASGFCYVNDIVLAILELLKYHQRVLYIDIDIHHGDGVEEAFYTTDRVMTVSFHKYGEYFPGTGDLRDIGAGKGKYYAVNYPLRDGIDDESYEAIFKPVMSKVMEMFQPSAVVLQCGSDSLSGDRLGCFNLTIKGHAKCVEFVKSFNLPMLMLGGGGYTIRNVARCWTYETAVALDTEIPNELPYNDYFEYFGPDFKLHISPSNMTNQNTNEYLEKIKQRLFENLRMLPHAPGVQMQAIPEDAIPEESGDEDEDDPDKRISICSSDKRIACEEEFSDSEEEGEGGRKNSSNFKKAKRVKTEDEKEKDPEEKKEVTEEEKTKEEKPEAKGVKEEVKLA
Histone deacetylase 4 (Homo sapiens), sequence (P56524 whole entry): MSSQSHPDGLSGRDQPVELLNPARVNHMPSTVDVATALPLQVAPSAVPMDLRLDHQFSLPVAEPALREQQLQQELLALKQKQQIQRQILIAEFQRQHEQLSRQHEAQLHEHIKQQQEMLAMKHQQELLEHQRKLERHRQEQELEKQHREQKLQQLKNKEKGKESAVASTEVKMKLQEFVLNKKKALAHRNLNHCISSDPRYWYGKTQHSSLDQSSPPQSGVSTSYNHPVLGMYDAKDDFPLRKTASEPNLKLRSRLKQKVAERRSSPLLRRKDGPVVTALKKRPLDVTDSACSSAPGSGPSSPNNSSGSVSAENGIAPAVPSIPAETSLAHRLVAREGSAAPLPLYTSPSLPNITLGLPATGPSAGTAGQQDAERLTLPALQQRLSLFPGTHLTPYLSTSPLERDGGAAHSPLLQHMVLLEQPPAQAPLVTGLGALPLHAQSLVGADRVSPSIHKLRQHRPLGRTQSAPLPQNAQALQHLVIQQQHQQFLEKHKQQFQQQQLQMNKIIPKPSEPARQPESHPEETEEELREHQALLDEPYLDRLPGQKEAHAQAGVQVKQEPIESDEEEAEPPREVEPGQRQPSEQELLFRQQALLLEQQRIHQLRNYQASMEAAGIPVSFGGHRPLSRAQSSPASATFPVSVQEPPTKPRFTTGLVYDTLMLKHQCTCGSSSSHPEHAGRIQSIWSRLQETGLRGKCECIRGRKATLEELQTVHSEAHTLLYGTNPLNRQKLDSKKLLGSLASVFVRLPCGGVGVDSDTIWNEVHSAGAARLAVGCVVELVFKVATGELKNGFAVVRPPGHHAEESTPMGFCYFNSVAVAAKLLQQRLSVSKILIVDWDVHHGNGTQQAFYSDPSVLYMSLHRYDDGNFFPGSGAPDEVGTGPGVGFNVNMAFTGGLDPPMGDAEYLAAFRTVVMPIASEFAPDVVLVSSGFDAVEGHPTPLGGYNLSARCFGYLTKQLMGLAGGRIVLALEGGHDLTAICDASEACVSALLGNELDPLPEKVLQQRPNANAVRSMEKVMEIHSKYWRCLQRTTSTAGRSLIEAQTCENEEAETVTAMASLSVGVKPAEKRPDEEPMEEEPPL
Histone deacetylase 3, sequence (O15379 whole entry): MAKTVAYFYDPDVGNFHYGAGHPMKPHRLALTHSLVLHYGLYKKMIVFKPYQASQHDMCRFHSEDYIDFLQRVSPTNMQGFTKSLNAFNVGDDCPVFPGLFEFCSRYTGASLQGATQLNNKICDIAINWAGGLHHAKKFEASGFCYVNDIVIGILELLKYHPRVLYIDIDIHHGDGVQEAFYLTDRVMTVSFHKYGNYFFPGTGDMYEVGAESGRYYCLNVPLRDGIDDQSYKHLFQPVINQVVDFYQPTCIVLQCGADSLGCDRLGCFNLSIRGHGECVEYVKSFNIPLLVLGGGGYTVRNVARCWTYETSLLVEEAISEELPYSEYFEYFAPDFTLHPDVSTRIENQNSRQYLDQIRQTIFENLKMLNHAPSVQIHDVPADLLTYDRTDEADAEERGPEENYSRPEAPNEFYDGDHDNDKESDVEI
Histone deacetylase 5 (Homo sapiens), sequence (Q9UQL6 whole entry): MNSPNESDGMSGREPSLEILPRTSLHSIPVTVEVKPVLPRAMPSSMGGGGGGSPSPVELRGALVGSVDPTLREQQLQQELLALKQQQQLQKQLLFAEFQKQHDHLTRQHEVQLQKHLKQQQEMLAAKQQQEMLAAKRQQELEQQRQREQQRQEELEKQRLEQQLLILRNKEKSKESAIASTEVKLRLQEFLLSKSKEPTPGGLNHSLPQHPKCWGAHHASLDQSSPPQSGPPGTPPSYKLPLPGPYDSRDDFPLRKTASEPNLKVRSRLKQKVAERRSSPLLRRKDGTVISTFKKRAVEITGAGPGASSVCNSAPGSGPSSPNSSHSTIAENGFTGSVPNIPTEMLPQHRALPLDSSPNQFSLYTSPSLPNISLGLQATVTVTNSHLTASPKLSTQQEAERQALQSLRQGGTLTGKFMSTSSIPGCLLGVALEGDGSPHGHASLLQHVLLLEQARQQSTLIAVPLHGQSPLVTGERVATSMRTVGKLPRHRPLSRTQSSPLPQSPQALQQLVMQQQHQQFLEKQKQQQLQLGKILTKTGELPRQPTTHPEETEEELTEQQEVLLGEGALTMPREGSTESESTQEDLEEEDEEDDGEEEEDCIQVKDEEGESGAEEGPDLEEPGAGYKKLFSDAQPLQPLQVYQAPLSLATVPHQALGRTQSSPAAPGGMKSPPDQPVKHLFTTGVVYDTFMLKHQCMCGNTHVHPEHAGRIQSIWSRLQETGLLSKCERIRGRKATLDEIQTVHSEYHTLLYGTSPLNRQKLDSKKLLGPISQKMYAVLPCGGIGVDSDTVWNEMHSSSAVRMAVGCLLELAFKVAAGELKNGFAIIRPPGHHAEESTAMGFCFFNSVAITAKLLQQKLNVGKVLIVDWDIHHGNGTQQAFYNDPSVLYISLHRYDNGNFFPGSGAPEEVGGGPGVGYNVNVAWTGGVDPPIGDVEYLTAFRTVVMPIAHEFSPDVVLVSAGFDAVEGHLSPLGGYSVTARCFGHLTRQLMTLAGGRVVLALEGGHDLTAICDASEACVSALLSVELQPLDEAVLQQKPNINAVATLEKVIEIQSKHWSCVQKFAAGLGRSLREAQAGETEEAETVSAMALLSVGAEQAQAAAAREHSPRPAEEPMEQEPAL

With `CN(Cc1ccc(COC(=O)NCc2ccc(C(=O)Nc3ccccc3N)cc2)cn1)Cc1no[n+]([O-])c1C#N` the inhibition [1] was 20 to 50%, the Activity [2] was “Dose-dependent effect” and the EC50 [3] was 0.024 µM. The EC50 [4] was 0.96 µM and the Activity [5] was “Active”.

In the case of `COCCOc1no[n+]([O-])c1S(=O)(=O)c1ccccc1`, the Activity [2] is reported as “Dose-dependent effect”, the EC50 [3] is reported as 0.0045 µM and the EC50 [4] is reported as 0.43 µM.

For `CN(C)CCCCC(CO[N+](=O)[O-])O[N+](=O)[O-]` (centres undefined), the Activity [2] was “Dose-dependent effect”, the EC50 [3] was 0.8 µM and the EC50 [4] was over 100 µM.

With `CN(Cc1ccc(COC(=O)NCc2ccc(C(=O)Nc3ccccc3N)cc2)cn1)Cc1no[n+]([O-])c1C(N)=O.Cl.Cl.Cl` the Drug metabolism [6] was “Metabolite_Notdetected”, the Drug metabolism [7] was “Metabolite_Notdetected” and the inhibition [1] was 20 to 50%. The Activity [2] was “Dose-dependent effect”, the EC50 [3] was 3.4 µM and the EC50 [4] was 63 µM.

With `CN(CCCCC(CO[N+](=O)[O-])O[N+](=O)[O-])Cc1ccc(COC(=O)NCc2ccc(C(=O)Nc3ccccc3N)cc2)cn1.Cl.Cl.Cl` (centres undefined) the Activity [8] was “Active”, the Activity [9] was “Non-Toxic” and the IC50 [10] was 0.39 µM. For the same molecule, the Drug metabolism [7] was “Metabolite_Detected”, the Activity [11] was “Active” and the Activity [12] was “Active”. The inhibition [1] was 20 to 50%, the IC50 [13] was 1.04 µM and the Activity [2] was “Dose-dependent effect”. The EC50 [3] was 0.29 µM, the EC50 [4] was 11 µM and the Activity [5] was “Active”. For the same molecule, the Activity [14] was “Active”, the IC50 [15] was 1.22 µM and the Activity [16] was “Non-Toxic”. The Activity [17] was “Active”.

For `CN(CCCO[N+](=O)[O-])Cc1ccc(COC(=O)NCc2ccc(C(=O)Nc3ccccc3N)cc2)cn1.Cl.Cl.Cl`, the Drug metabolism [7] was “Metabolite_Notdetected”, the inhibition [1] was 20 to 50% and the Activity [2] was “Dose-dependent effect”. The EC50 [3] was 2.6 µM and the EC50 [4] was 44 µM.

For `Nc1ccccc1NC(=O)c1ccc(CNC(=O)OCc2cccnc2)cc1` [ENTINOSTAT], the Activity [9] was “Toxic” and the Activity [16] was “Toxic”.

With `Nc1ccccc1NC(=O)c1ccc(CNC(=O)OCc2ccc(OCCOc3no[n+]([O-])c3S(=O)(=O)c3ccccc3)nc2)cc1` the Activity [9] was “Non-Toxic”, the IC50 [10] was 0.37 µM and the Activity [11] was “Active”. The Activity [12] was “Active”, the Drug metabolism [18] was “Tde” and the inhibition [1] was 20 to 50%. For the same molecule, the IC50 [13] was 1.02 µM, the Activity [2] was “Dose-dependent effect” and the EC50 [3] was 0.031 µM. For the same molecule, the EC50 [4] was 0.35 µM, the Activity [5] was “Active” and the Activity [14] was “Active”. For the same molecule, the IC50 [15] was 1.19 µM and the Activity [16] was “Non-Toxic”.

With `Nc1ccccc1NC(=O)c1ccc(CNC(=O)OCc2ccc(OCCOc3no[n+]([O-])c3-c3ccccc3)nc2)cc1` the Drug metabolism [7] was “Metabolite_Detected”, the inhibition [1] was 20 to 50% and the Activity [2] was “Dose-dependent effect”. For the same molecule, the EC50 [3] was 3.4 µM and the EC50 [4] was over 100 µM.
